Several values for one entry are separate records, joined by “and”; a condition that tells them apart may be missing. Identical values can stand only once.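 All cell lines were grown in 96-well plates and treated with compound for 48 hours. Here, GI50 denotes the concentration required for 50% inhibition of growth. At the TGI there is no net growth.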
Key:
Assay in all cases: NCI anticancer screen, dose series, 48 h
[1] = tested on: A549 NSCLC
[2] = tested on: CCRF-CEM leukemia
[3] = tested on: COLO 205 colon
[4] = tested on: HT29 colon
[5] = tested on: IGROV1 ovarian
[6] = tested on: K-562 leukemia
[7] = tested on: MALME-3M melanoma
[8] = tested on: NCI-H23 lung
[9] = tested on: SNB-75 CNS
[10] = tested on: UACC-62 melanoma

SMILES: COc1cc2c(cc1OC)c1c(OC)c(OC)cc3c1c1c2sc(=S)n1CC3
- TGI [1]: > 100 µM
- TGI [2]: > 100 µM
- TGI [3]: > 100 µM
- TGI [4]: > 100 µM
- TGI [5]: > 100 µM
- TGI [6]: > 100 µM
- TGI [7]: > 100 µM
- TGI [8]: > 100 µM
- TGI [9]: > 100 µM
- TGI [10]: 59.1 µM

SMILES: O=S(=O)(Nc1ccc2ccccc2c1)c1ccc(-c2cnc(C3CC3)o2)cc1
- GI50 [1]: 1.74 µM
- TGI [1]: > 100 µM
- GI50 [2]: 1.64 µM
- TGI [2]: > 100 µM
- GI50 [3]: 1.79 µM
- TGI [3]: 9.22 µM
- GI50 [4]: 0.429 µM
- TGI [4]: 17.6 µM
- GI50 [5]: 1.08 µM
- TGI [5]: 14 µM
- GI50 [6]: 0.394 µM
- TGI [6]: > 100 µM
- GI50 [7]: 0.999 µM
- TGI [7]: 24 µM
- GI50 [8]: 3.38 µM
- TGI [8]: 22.5 µM
- GI50 [9]: 0.616 µM
- TGI [9]: 6.07 µM
- GI50 [10]: 0.914 µM
- TGI [10]: 14.5 µM

SMILES: CC1=C2[C@H](c3ccccc3)C3C=CC2(c2ccccc23)N(C(=O)C(c2ccccc2)c2ccccc2)C1=O (stereo partly specified)
- TGI [1]: > 100 µM
- TGI [2]: > 100 µM
- TGI [3]: > 100 µM
- TGI [4]: > 100 µM
- TGI [5]: > 100 µM
- TGI [6]: > 100 µM
- TGI [7]: > 100 µM
- TGI [8]: > 100 µM
- TGI [9]: > 100 µM
- TGI [10]: > 100 µM

SMILES: C1CCN2CC3CCCN4CCCC(C2C1)C34 (stereo unspecified)
- TGI [1]: > 100 µM
- TGI [2]: > 100 µM
- TGI [3]: > 100 µM
- TGI [4]: > 100 µM
- TGI [5]: > 100 µM
- TGI [6]: > 100 µM
- TGI [7]: > 100 µM
- TGI [8]: > 100 µM
- TGI [9]: > 100 µM
- TGI [10]: > 100 µM

SMILES: N#Cc1c(N)nc(N2CCSCC2)c(C#N)c1-c1ccc(O)cc1
- GI50 [1]: 30.7 µM
- TGI [1]: > 100 µM
- GI50 [2]: 26.4 µM
- TGI [2]: > 100 µM
- GI50 [3]: 19.8 µM
- TGI [3]: 47.1 µM
- GI50 [4]: 16.7 µM
- TGI [4]: 37.6 µM
- GI50 [5]: 32.6 µM
- TGI [5]: > 100 µM
- GI50 [6]: 19.8 µM
- TGI [6]: 58.3 µM
- GI50 [7]: 15.2 µM
- TGI [7]: 94.4 µM
- GI50 [8]: 17.4 µM
- TGI [8]: 36 µM
- GI50 [9]: 10.9 µM
- TGI [9]: 30.4 µM
- GI50 [10]: 13 µM
- TGI [10]: 26.2 µM

SMILES: O=C(Nc1cccnc1)c1ccc2ccc3ccc(C(=O)Nc4cccnc4)nc3c2n1
- GI50 [1]: 0.135 µM
- TGI [1]: > 100 µM
- GI50 [2]: 0.169 µM
- TGI [2]: > 100 µM
- GI50 [3]: 0.135 µM
- TGI [3]: > 100 µM
- GI50 [4]: 0.0458 µM
- TGI [4]: > 100 µM
- GI50 [5]: 0.125 µM
- TGI [5]: > 100 µM
- GI50 [6]: 0.0526 µM
- TGI [6]: > 100 µM
- GI50 [7]: > 100 µM
- TGI [7]: > 100 µM
- GI50 [8]: 0.202 µM
- TGI [8]: > 100 µM
- GI50 [9]: 0.273 µM
- TGI [9]: > 100 µM
- GI50 [10]: 0.205 µM
- TGI [10]: > 100 µM

SMILES: CCC[CH2][Sn]([CH2]CCC)([O]C(=O)c1cc(F)cc(F)c1)[O][Sn]([CH2]CCC)([CH2]CCC)[O]C(=O)c1cc(F)cc(F)c1
- GI50 [1]: 9.78 µM
- TGI [1]: 21.8 µM
- GI50 [2]: 0.101 µM
- TGI [2]: 0.886 µM
- GI50 [3]: 1.05 µM
- TGI [3]: 2.34 µM
- GI50 [4]: 1.91 µM
- TGI [4]: 4.09 µM
- GI50 [5]: 1.64 µM
- TGI [5]: 3.31 µM
- GI50 [6]: 0.256 µM
- TGI [6]: 1.12 µM
- GI50 [7]: 0.889 µM
- TGI [7]: 2.18 µM
- GI50 [8]: 0.606 µM
- TGI [8]: 1.88 µM
- GI50 [9]: 1.26 µM
- TGI [9]: 2.71 µM
- GI50 [10]: 1.4 µM
- TGI [10]: 2.7 µM

SMILES: CCN(CC)CC(C)(C)C(=O)/C=C/c1ccc(/C=C/C(=O)C(C)(C)CN(CC)CC)cc1
- TGI [1]: 5.76 µM
- TGI [2]: 0.31 µM
- TGI [3]: 1.29 µM
- TGI [4]: 0.534 µM
- TGI [5]: 7.04 µM
- TGI [7]: 2.79 µM
- TGI [8]: 4.73 µM
- TGI [9]: 3.44 µM
- TGI [10]: 4.89 µM

SMILES: COc1ccc(/C=C\c2cc(OC)c(OC)c(OC)c2)c(O)c1O
- GI50 [1]: 0.0754 µM
- TGI [1]: > 70.1 µM and 88.7 µM
- GI50 [2]: 0.274 µM
- TGI [2]: 30.8 µM and 11.4 µM
- TGI [3]: 30.1 µM and 90.2 µM
- GI50 [4]: 20.1 µM
- TGI [4]: 36.1 µM and 103 µM
- GI50 [5]: 0.212 µM
- TGI [5]: 20.6 µM and 54.2 µM
- GI50 [6]: 0.333 µM
- TGI [6]: 13.2 µM and 37.1 µM
- TGI [7]: 27.1 µM and 129 µM
- GI50 [8]: 0.0598 µM and 0.0848 µM
- GI50 [9]: 2.36 µM
- TGI [9]: 20.7 µM and 48.2 µM
- GI50 [10]: 0.238 µM
- TGI [10]: 17 µM and 6.88 µM

SMILES: O=C(O)CCSC(=O)Nc1ccccc1Cl
- TGI [1]: > 100 µM
- TGI [2]: > 100 µM
- TGI [3]: > 100 µM
- TGI [4]: > 100 µM
- TGI [5]: > 100 µM
- TGI [6]: > 100 µM
- TGI [7]: > 100 µM
- TGI [8]: > 100 µM
- TGI [9]: > 100 µM
- TGI [10]: > 100 µM

SMILES: CSc1ccc(C2=NN(C(C)=O)C(c3ccc(F)cc3)C2)cc1 (stereo unspecified)
- GI50 [1]: 12.1 µM
- TGI [1]: 30.9 µM
- GI50 [2]: 0.617 µM
- TGI [2]: 24.5 µM
- GI50 [3]: 13.2 µM
- TGI [3]: 31.4 µM
- GI50 [4]: 15.2 µM
- TGI [4]: 46 µM
- GI50 [5]: 7.73 µM
- TGI [5]: 34.8 µM
- GI50 [6]: 14.5 µM
- TGI [6]: 36 µM
- GI50 [7]: 15.8 µM
- TGI [7]: 31.3 µM
- GI50 [8]: 16.5 µM
- TGI [8]: 34.9 µM
- GI50 [9]: 20 µM
- TGI [9]: 44.1 µM
- GI50 [10]: 7.97 µM
- TGI [10]: 21.1 µM

SMILES: CC(=O)O[C@H]1C(=O)[C@@]2(C)[C@H]([C@H](OC(=O)c3ccccc3)[C@@]3(O)C[C@H](O)C(C)=C1C3(C)C)[C@]1(OC(C)=O)CO[C@@H]1C[C@@H]2O
- TGI [1]: > 100 µM
- TGI [2]: > 100 µM
- TGI [3]: 81.5 µM
- TGI [4]: 86.6 µM
- TGI [5]: > 100 µM
- TGI [6]: > 100 µM
- TGI [7]: > 100 µM
- TGI [8]: > 100 µM
- TGI [9]: > 100 µM
- TGI [10]: > 100 µM

SMILES: COc1cc(-c2ccc(NC(=O)NC3CC3)c(OC)c2)ccc1NC(=O)NC1CC1
- GI50 [1]: 3.89 µM
- TGI [1]: > 100 µM
- GI50 [2]: 4.34 µM
- TGI [2]: > 100 µM
- GI50 [3]: 7.67 µM
- TGI [3]: > 100 µM
- GI50 [4]: 5.81 µM
- TGI [4]: > 100 µM
- GI50 [5]: 5.83 µM
- TGI [5]: 52.9 µM
- GI50 [6]: 2.45 µM
- TGI [6]: > 100 µM
- GI50 [7]: 4.99 µM
- TGI [7]: > 100 µM
- GI50 [8]: > 68.5 µM
- TGI [8]: > 100 µM
- GI50 [9]: 12.1 µM
- TGI [9]: > 85.8 µM
- GI50 [10]: 5.71 µM
- TGI [10]: > 100 µM

SMILES: CC[C@]12C=CCN3CC[C@@]4(c5ccc(OC)cc5N(C)[C@H]4[C@@](O)(C(=O)OC)[C@@H]1OC(=O)CCC(=O)N[C@H](Cc1c[nH]c4ccccc14)C(=O)OC)[C@@H]32
- GI50 [1]: 5.36 µM
- TGI [1]: 22.1 µM
- GI50 [2]: 3.34 µM
- TGI [2]: > 100 µM
- GI50 [3]: 3.47 µM
- TGI [3]: 14.3 µM
- GI50 [4]: 3.11 µM
- TGI [4]: 14.4 µM
- GI50 [5]: 4.3 µM
- TGI [5]: 24.1 µM
- GI50 [6]: 3.56 µM
- TGI [6]: > 100 µM
- GI50 [7]: 2.6 µM
- TGI [7]: 8.09 µM
- GI50 [8]: 13.5 µM
- TGI [8]: 54.3 µM
- GI50 [9]: 2.23 µM
- TGI [9]: 14.1 µM
- GI50 [10]: 2.42 µM
- TGI [10]: 7.19 µM

Source: PubChem BioAssay (NCI)
